# Measurements published in PubChem BioAssay AID602215 (Sanford-Burnham Center for Chemical Genomics, 2012).
# Activity calls are given as the source filed them.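 The calls were made as follows: active = IC50 of 20 µM or lower; inactive = the rest.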
# Test system: HL-1 cardiomyocytes, H2O2 injury, ATP luminescence, 2 h
# Assay: protection of HL-1 cardiomyocytes from peroxide injury, dose response, cell-based, ATP luminescence (AID 602215);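 also: potency is for protection so actives raise ATP signal against peroxide damage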
row,SMILES,IC50
1,COc1ccc2[nH]c(=O)c(CN(Cc3cccnc3)S(=O)(=O)c3ccccc3F)cc2c1,> 79 µM (inactive)
2,COc1cc(C(=O)N/N=C/c2ccc(OC(=O)c3cccc(C)c3)c(OC)c2)ccc1O,31.2 µM (inactive)
3,Cc1cc(C)c2c(N)c(C(=O)N/N=C/c3cccnc3)sc2n1,> 79 µM (inactive)
4,CC(=O)Nc1ccc(Nc2nc(-c3sc(NC(C)=O)nc3C)cs2)cc1,20.1 µM (inactive)
5,Nc1c(C(=O)N/N=C/c2cccnc2)oc2nc(-c3ccccc3)cc(-c3ccco3)c12,> 79 µM (inactive)
6,COc1cc(Nc2nc3ccccc3n3nnnc23)cc(OC)c1OC,> 79 µM (inactive)
7,CN(C(=O)c1sc2nc(N3CCOCC3)c3c(c2c1N)CCCC3)c1ccccc1,8.63 µM
8,CC(C)(C)NC(=O)COC(=O)c1c2c(nc3ccccc13)CCC2,49.1 µM (inactive)
9,CCN(CC(=O)Nc1ccc(OC)cc1)C(=O)c1cc(-c2cccs2)nn1-c1ccccc1,> 79 µM (inactive)
10,COc1cc(/C=N/NC(=O)c2ccccc2)ccc1OS(=O)(=O)c1ccccc1,> 79 µM (inactive)
11,CC(C)c1ccccc1NC(=O)COC(=O)c1c2c(nc3ccccc13)CCN(Cc1ccccc1)C2,41.4 µM (inactive)
12,CCOc1cc(/C=C(\C#N)C(=O)Nc2ccc(S(N)(=O)=O)cc2)ccc1OCCN1CCOCC1,> 79 µM (inactive)
13,CC12C=CC(=O)CC1CCC1C2CCC2(C)C(O)C(O)CC12 (stereo not drawn),> 79 µM (inactive)
14,COc1ccc(-c2cc(C(=O)N(C)Cc3nc4ccccc4c(=O)[nH]3)c3ccccc3n2)cc1OC,21.3 µM (inactive)
15,CCOC(=O)C1CCN(c2cc3c(cc2NC(=O)c2ccc(OC)c(OC)c2)n(C)c(=O)n3C)CC1,> 79 µM (inactive)
16,CCn1nc(C(=O)Nc2nc(-c3ccccn3)cs2)c2ccccc2c1=O,33 µM (inactive)
17,NC(=O)c1nsc(C(=O)N(Cc2ccco2)C(C(=O)NCc2ccccc2)c2ccc(O)cc2)c1N (stereo not drawn),45.3 µM (inactive)
18,CCOc1ccc(C(C(=O)NCC2CCCO2)N(C(=O)c2snc(C(N)=O)c2N)c2ccccc2F)cc1 (stereo not drawn),10.4 µM
19,Cc1cccc(NC(=O)c2oc3ccc(S(=O)(=O)N4CCOCC4)cc3c2C)c1C,4.13 µM
20,O=C(NCC(=O)N(Cc1cccs1)C(C(=O)NC1CCCCC1)c1ccco1)c1ccco1 (stereo not drawn),> 79 µM (inactive)
21,CCOC(=O)c1ccc(NC(=O)c2nc[nH]c2C(=O)NCCCCCNC(=O)OC(C)(C)C)cc1,> 79 µM (inactive)
22,COc1ccc(-c2csc(NC(=O)c3ccc(OCC(=O)N4CCOCC4)c(OC)c3)n2)cc1OC,12.3 µM

row,SMILES,IC50
1,CCOC(=O)C1CCN(c2cc3c(cc2NC(=O)c2ccccc2Cl)n(C)c(=O)n3C)CC1,> 79 µM (inactive)
2,COc1cccc(-c2cnc3c(NC=O)cc(-c4cc(OC)c(OC)c(OC)c4)cn23)c1,> 79 µM (inactive)
3,O=C(Nc1ccccc1)c1nc[nH]c1C(=O)NCCCCNC(=O)c1[nH]cnc1C(=O)Nc1ccccc1,39.6 µM (inactive)
4,C[C@H](NC(=O)c1nc[nH]c1C(=O)NCC(=O)OCc1ccccc1)c1ccccc1,> 79 µM (inactive)
5,COc1cccc(-c2cnc3c(NC=O)cc(-c4cc(C)c(O)c(C)c4)cn23)c1,4.55 µM
6,CC(=O)c1cccc(-c2cnc3c(NC=O)cc(-c4ccccc4F)cn23)c1,3.28 µM
7,Cc1ccc(-c2csc(N3CCC[C@@H]3C(=O)NCCn3c(-c4ccncc4)nc4ccccc43)n2)cc1,> 79 µM (inactive)
8,COc1cc(-c2cnc3c(NC=O)cc(-c4cccnc4)cn23)cc(OC)c1OC,16.9 µM
9,Fc1ccc(-n2cc(-c3ccccc3)c3c(N4CCOCC4)ncnc32)cc1,> 79 µM (inactive)
10,COc1ccc(C(=O)Nc2cccc(/C(C)=N/NC(=O)c3ccc([N+](=O)[O-])c(C)c3)c2)cc1OC,> 79 µM (inactive)
11,O=C(COC(=O)c1c2c(nc3ccccc13)/C(=C/c1cccc([N+](=O)[O-])c1)CCC2)NC1CCS(=O)(=O)C1 (stereo not drawn),> 79 µM (inactive)
12,CC(=O)c1cccc(Nc2nc3ccccc3n3cnnc23)c1,> 79 µM (inactive)
13,CCN1C(=O)/C(=C/c2nc3ccccc3c(=O)[nH]2)c2ccccc21,5.41 µM
14,COc1cc(-c2cc(C(=O)Nc3ccccc3N3CCOCC3)c3ccccc3n2)cc(OC)c1OC,4.24 µM
15,CCOc1cc(/C=C/c2ccc3cccc([N+](=O)[O-])c3n2)ccc1OCC(=O)N(C)C,> 79 µM (inactive)
16,COc1ccc(Nc2nc(C(=O)N3CCc4cc(OC)c(OC)cc4C3)cs2)cc1,8.5 µM
17,COc1ccc(-c2cc(NC=O)c3ncc(-c4ccc(C(C)=O)cc4)n3c2)cn1,> 79 µM (inactive)
18,CC(=O)Nc1ccc(C(=O)N/N=C/c2ccccc2OC(=O)c2ccc(Cl)cc2)cc1,> 79 µM (inactive)
19,O=C1OCCN1C(=O)[C@H]1[C@H](c2ccc([N+](=O)[O-])cc2)C(c2ccc(F)cc2)=NN1c1ccc(Br)cc1,> 79 µM (inactive)
20,Cc1ccccc1N(C(=O)c1snc(C(N)=O)c1N)C(C(=O)NCc1ccccc1)c1ccc(O)cc1 (stereo not drawn),15.9 µM
21,COc1cc(-c2cc(NC(C)=O)c3ncc(-c4ccc(F)cc4)n3c2)cc(OC)c1OC,> 79 µM (inactive)
22,COc1cc(C(=O)NCC(=O)N/N=C/c2ccc(-c3cccc([N+](=O)[O-])c3)o2)cc(OC)c1OC,9.15 µM

row,SMILES,IC50
1,COc1ccc(-c2ccc3c(c2)S(=O)(=O)c2cccc(C(=O)NC[C@@H]4CCCO4)c2C3=O)cc1OC,> 79 µM (inactive)
2,COc1ccc(-c2cc3nc(-c4ccccc4)cc(N4CCN(C(C)=O)CC4)n3n2)cc1,1.59 µM
3,O=C(CNC(=O)c1[nH]cnc1C(=O)NC(c1ccccc1)c1ccccc1)OCc1ccccc1,69.7 µM (inactive)
4,COc1ccc(C(=O)Nc2cccc(NC(=O)c3ccc(OC)c(OC)c3)n2)cc1OC,> 79 µM (inactive)
5,c1ccc(-c2nc(-n3ccnc3)nc(-n3ccnc3)n2)cc1,> 79 µM (inactive)
6,COc1ccc(-c2cc(C(=O)Nc3ccccc3N3CCOCC3)c3ccccc3n2)cc1OC,4.35 µM
7,COc1cccc(Nc2nc3ccccc3n3cnnc23)c1,> 79 µM (inactive)
8,COc1cc(-c2cc3nc(NCCOc4ccccc4)ccn3n2)cc(OC)c1OC,> 79 µM (inactive)
9,COc1ccc(-c2cc(-c3nnc(COC(=O)C4CC4)o3)c3ccccc3n2)cc1OC,> 79 µM (inactive)
10,CNC(=O)COC(=O)/C=C/c1cn(-c2ccccc2)nc1-c1ccc(C)o1,37.1 µM (inactive)
11,COc1ccc(/C=N/NC(=O)c2ccc(COc3cccc4cccnc34)cc2)cc1OC,6.02 µM
12,CCOc1ccccc1Nc1nnc(SCc2nnc(-c3cc(OC)c(OC)c(OC)c3)o2)s1,10 µM
13,Cn1c(=O)c2[nH]c(NN=Cc3ccc(Br)cc3)nc2n(C)c1=O,> 79 µM (inactive)
14,CC(OC(=O)c1cc(-c2cccnc2)nc2ccccc12)C(=O)Nc1ccc2ccccc2c1 (stereo not drawn),> 79 µM (inactive)
15,COc1cc(NC(=O)c2cc3nc(-c4ccccc4)cc(-c4ccccc4)n3n2)cc(OC)c1OC,8.71 µM
16,COc1ccc(Nc2nnc(SCc3cc(=O)n4ccsc4n3)s2)cc1,> 79 µM (inactive)
17,COC(=O)c1cc2c(-c3ccccc3)cc3ccccn3c-2c1C(=O)OC,> 79 µM (inactive)
18,COc1ccc(-c2csc(NC(=O)c3cccc(N4C(=O)CCC4=O)c3)n2)cc1OC,> 79 µM (inactive)
19,COCCCN(Cc1ccco1)C(=O)Cn1ncc2c([nH]c3ccccc32)c1=O,> 79 µM (inactive)
20,CC(=O)Nc1cc(-c2ccc(C(=O)NC3CC3)cc2)cn2c(-c3cccc(C(C)=O)c3)cnc12,> 79 µM (inactive)
21,CCOC(=O)c1c(C)[nH]c(C)c1C(=O)COc1ncnc2cc([N+](=O)[O-])ccc12,> 79 µM (inactive)
22,COc1cc(NC(=O)c2cc3ccccc3cc2OC)ccc1NC(=O)c1cccs1,4.22 µM

row,SMILES,IC50
1,O=C(COC(=O)c1ccccc1C(=O)OCC(=O)NCCc1c[nH]c2ccccc12)NCCc1c[nH]c2ccccc12,> 79 µM (inactive)
2,O=C(NCC(=O)N(Cc1ccccc1)C(C(=O)NC1CCCCC1)c1ccco1)c1ccco1 (stereo not drawn),> 79 µM (inactive)
3,N#C/C(=C\Nc1ccc2c(c1)OCCO2)c1nc2ccccc2[nH]1,> 79 µM (inactive)
4,CC(=O)Nc1cc(-c2cccc(NS(C)(=O)=O)c2)cn2c(-c3cccc(C(C)=O)c3)cnc12,11.4 µM
5,CCOC(=O)c1c2c3c(cccc3n(C)c1=O)C(=O)c1ccccc1-2,> 79 µM (inactive)
6,CC(C)(C)OC(=O)N1CCC(NC(=O)c2nc[nH]c2C(=O)NCC(=O)OCc2ccccc2)CC1,> 79 µM (inactive)
7,COc1cccc(-c2cnc3c(NC=O)cc(-c4ccc(O)c(OC)c4)cn23)c1,> 79 µM (inactive)
8,CC1(c2ccccc2)NC(=O)N(CC(=O)Nc2cccc(/C=C/c3ccccn3)c2)C1=O (stereo not drawn),14 µM
9,COC(=O)c1ccc(N)c(N=CC2=C(O)CC(C)(C)CC2=O)c1,41.4 µM (inactive)
10,COc1ccc(-c2ccc3c(c2)S(=O)(=O)c2cccc(C(=O)N4CCN(c5c(Cl)cncc5Cl)CC4)c2C3=O)cc1OC,> 79 µM (inactive)
11,COc1cc(-c2cc(C(=O)NCc3ccco3)c3ccccc3n2)cc(OC)c1OC,23.5 µM (inactive)
12,CCOC(=O)C(Cc1ccc(NC(=O)/C(=C/c2ccc(OC(C)=O)cc2)NC(C)=O)cc1)N1C(=O)c2ccccc2C1=O (stereo not drawn),32.5 µM (inactive)
13,O=C(C(=O)N(Cc1ccccc1)Cc1ccccc1)c1c(-c2ccccc2)[nH]c2ccccc12,> 79 µM (inactive)
14,COc1ccccc1NC(=O)c1cc(-c2cc(OC)c(OC)c(OC)c2)nc2ccccc12,13.4 µM
15,COc1ccccc1OP(=O)(Nc1cccnc1)Oc1ccccc1OC,> 79 µM (inactive)
16,NC(=O)c1nsc(C(=O)N(c2ccccc2)C(C(=O)NC2CCCC2)c2ccc3ncccc3c2)c1N (stereo not drawn),5.51 µM
17,NC(=O)c1nsc(C(=O)N(c2ccccc2F)C(C(=O)NCc2ccc(F)cc2)c2ccc(O)cc2)c1N (stereo not drawn),> 79 µM (inactive)
18,COc1ccccc1NC(=O)c1cc(-c2ccc(OC)c(OC)c2)nc2ccccc12,> 79 µM (inactive)
19,Cc1nn(-c2ccccc2)c(N2CCCC2)c1/C=N/NC(=O)c1cc(-c2ccccn2)nc2ccccc12,> 79 µM (inactive)
20,CS(=O)(=O)c1ccc(-c2cnc3c(NC=O)cc(-c4ccsc4)cn23)cc1,8.73 µM
21,NC(=O)c1cc2ccccc2o/c1=N\NC(=O)c1ccc(F)cc1,3.33 µM
22,CC(C)OCCCNC(=O)CCC(=O)NNc1nc2ccccc2c2nc(-c3ccccc3)nn12,> 79 µM (inactive)
